Laboratory results as given in patent US8133849B2, “Herbicidal compounds” (Syngenta Limited, priority 2007, dated 2012).

Experiments:
Experiment in all cases: Example B2 herbicidal action, post-emergence, pots in glasshouse, damage score 0-10
Format in all cases: in vivo
Conditions in all cases: application post-emergence, rate 1000 g/ha, evaluated after 13 days
Amaranthus retroflexus = test system: Amaranthus retroflexus
How it was run: (§1)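 Pot-grown plants were sprayed post-emergence at 8 days with active ingredient in aqueous spray derived from acetone/water (50:50) containing 0.5% Tween 20. Glasshouse conditions were 24/16° C day/night, 14 h light and 65% humidity, with watering twice daily. Damage was scored 13 days after spraying.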

Echinochloa crus-galli = test system: Echinochloa crus-galli
How it was run: as §1

Ipomea hederaceae = test system: Ipomea hederaceae
How it was run: as §1

Setaria faberi = test system: Setaria faberi
How it was run: as §1

Solanum nigrum = test system: Solanum nigrum
How it was run: as §1

Row | Structure (SMILES) | AMARE damage score (10=total damage to plant; 0=no damage to plant) (Amaranthus retroflexus) | ECHCG damage score (10=total damage to plant; 0=no damage to plant) (Echinochloa crus-galli) | IPOHE damage score (10=total damage to plant; 0=no damage to plant) (Ipomea hederaceae) | SETFA damage score (10=total damage to plant; 0=no damage to plant) (Setaria faberi) | SOLNI damage score (10=total damage to plant; 0=no damage to plant) (Solanum nigrum)
1 | COCN1c2nccnc2C(OC(=O)C(C)(C)C)=C(c2ccc(Cl)cc2Cl)S1(=O)=O [Compound C11] | 1 | 3 | 2 | 4 | 6
2 | CCSC(=O)OC1=C(c2c(F)ccc(Cl)c2Cl)S(=O)(=O)N(CC(F)F)c2nccnc21 [Compound C32] | 8 | 7 | 9 | 1 | 8
3 | CCN1c2nccnc2C(O)=C(c2ccc(Cl)cc2C(F)(F)F)S1(=O)=O [Compound D10] | 9 | 4 | 9 | 2 | 10
4 | O=S1(=O)C(c2c(Cl)cccc2C(F)(F)F)=C(O)c2nccnc2N1CC(F)F [Compound D11] | 10 | 8 | 9 | 8 | 10
5 | O=S1(=O)C(c2cccc(C(F)(F)F)c2Cl)=C(O)c2nccnc2N1CC(F)F [Compound D37] | 10 | 3 | 10 | 5 | 9
6 | CC(C)C(=O)OC1=C(c2cc(C(F)(F)F)ccc2Cl)S(=O)(=O)N(C)c2nccnc21 [Compound C90] | 8 | 2 | 9 | 1 | 10
7 | CCN1c2nccnc2C(OC(=O)C(C)C)=C(c2ccccc2C(F)(F)F)S1(=O)=O [Compound C63] | 9 | 7 | 10 | 7 | 9
8 | CCSC(=O)OC1=C(c2cc(Cl)ccc2C(F)(F)F)S(=O)(=O)N(CC)c2nccnc21 [Compound C109] | 5 | 5 | 9 | 2 | 8
9 | Cc1ccc(C2=C(OC(=O)C(C)C)c3nccnc3N(CC(F)F)S2(=O)=O)c(Cl)c1 [Compound C136, isobutyric acid 3-(2-chloro-4-methyl-phenyl)-1-(2,2-difluoro-ethyl)-2,2-dioxo-1,2-dihydro-2-λ-6-thia-1,5,8-triaza-naphthalen-4-yl ester] | 3 | 0 | 7 | 2 | 8
10 | CCN1c2nccnc2C(O)=C(c2ccc(Cl)c(Cl)c2)S1(=O)=O [Compound D8] | 9 | 0 | 0 | 0 | 2
11 | CC(C)(C)C(=O)OC1=C(c2c(Cl)cccc2C(F)(F)F)S(=O)(=O)N(CC(F)F)c2nccnc21 [Compound C31] | 8 | 8 | 8 | 7 | 9
12 | Cc1ccc(F)c(C2=C(O)c3nccnc3N(CC(F)F)S2(=O)=O)c1Cl [Compound D12] | 6 | 0 | 5 | 2 | 9
13 | COc1cccc(F)c1C1=C(OC(=O)C(C)C)c2nccnc2N(CC(F)F)S1(=O)=O [Compound C137] | 7 | 3 | 8 | 8 | 9
14 | CCN1c2nccnc2C(O)=C(c2c(F)ccc(Br)c2Cl)S1(=O)=O [Compound D13] | 8 | 5 | 9 | 2 | 9
15 | O=S1(=O)C(c2ccc(I)cc2Cl)=C(O)c2nccnc2N1CC(F)F [Compound D59] | 4 | 3 | 4 | 1 | 8
16 | CC(C)(C)C(=O)OC1=C(c2ccccc2OC(F)(F)F)S(=O)(=O)N(CC(F)F)c2nccnc21 [Compound C21] | 7 | 6 | 9 | 4 | 10
17 | COc1ccc(Cl)c(C2=C(OC(=O)C(C)C)c3nccnc3N(CC(F)F)S2(=O)=O)c1F [Compound C143] | 1 | 4 | 8 | 0 | 10
18 | CC(C)(C)C(=O)OC1=C(c2c(F)ccc(-c3cccc(Cl)c3)c2Cl)S(=O)(=O)N(CC(F)F)c2nccnc21 [Compound C42, 2,2-dimethylpropionic acid-3-(2,3′-dichloro-4-fluoro-biphenyl-3-yl)-1-(2,2-difluoroethyl)-2,2-dioxo-1,2-dihydro-2-λ-6-thia-1,5,8-triaza-naphthalen-4-yl ester] | 2 | 2 | 4 | 2 | 3
19 | CC(C)C(=O)OC1=C(c2ccccc2[N+](=O)[O-])S(=O)(=O)N(CC(F)F)c2nccnc21 [Compound C65] | 2 | 0 | 1 | 2 | 2
20 | CC(C)C(=O)OC1=C(c2c(C(F)(F)F)ccc(Cl)c2Cl)S(=O)(=O)N(CC(F)F)c2nccnc21 [Compound C134] | 8 | 5 | 3 | 4 | 8
21 | CC(C)(C)C(=O)OC1=C(c2cc(Cl)ccc2C(F)(F)F)S(=O)(=O)N(CC(F)F)c2nccnc21 [Compound C111] | 8 | 6 | 9 | 6 | 9
